Experimental data as given in US5481013A, “Carboxylic acid derivatives” (Ciba-Geigy Corporation, priority 1992, dated 1996).

Key:
Assay type in all cases: in vivo
Nilaparvata lugens = experiment: Activity against Nilaparvata lugens (spray on rice plants); conditions: 504 h, 400 ppm spray on rice plants, larvae in stages 2 and 3, evaluated after 21 days, read-out: percentage reduction in population (% activity)
Method: Rice plants are treated with a spray mixture prepared with an aqueous emulsion and comprising 400 ppm of the active ingredient. After the spray coating has dried on, the rice plants are populated with plant hopper larvae in stages 2 and 3. The test is evaluated after 21 days. The percentage reduction in population (% activity) is determined by comparing the number of surviving plant hoppers on the treated plants with the number of plant hoppers on the untreated plants. […] An activity of over 80% is shown, in particular, by compound Nos. 1.01, 2.01 to 2.03, 2.07, 2.08, 2.10 to 2.16, 2.20, 2.22, 2.23, 2.26, 3.01, 4.01 to 4.06, 4.20, 5.01 to 5.06, 5.08, 5.10 to 5.12, 5.15, 5.16 and 5.20 to 5.25.

Dermanyssus gallinae = experiment: Activity against Dermanyssus gallinae; conditions: 72 h, 10 ppm solution, mites in different development stages, after 3 days
Method: 2 to 3 ml of a solution comprising 10 ppm of active ingredient and approximately 200 mites in different development stages are placed into a glass container which is open at the top. The container is then sealed with a cottonwool ball, shaken for 10 minutes until the mites are wetted completely, and then briefly turned over so that the remaining test solution can be absorbed by the cottonwool. After 3 days, the mortality of the mites is determined by counting the dead individuals; it is given as a percentage.

Bemisia tabaci = experiment: Activity against Bemisia tabaci; conditions: 336 h, 400 ppm spray on dwarf bean plants with nymphs, evaluated 14 days after application, read-out: activity (hatching percentages vs untreated control)
Method: Dwarf bean plants are placed into gauze cages and populated with adult Bemisia tabaci specimens (white fly). After oviposition has taken place, all adults are removed and, 10 days later, the plants with the nymphs located thereon are treated with a spray mixture of the active ingredients to be tested (concentration 400 ppm), which has been prepared with an aqueous emulsion. The test is evaluated for hatching percentages 14 days after the active ingredient has been applied by comparison with the untreated control batches. […] An activity of over 80% is shown, in particular, by compound Nos. 1.01, 2.01 to 2.08, 2.10 to 2.16, 2.22, 2.23, 3.01, 4.01, 4.02, 4.05, 4.06, 5.02, 5.03, 5.06 to 5.08, 5.10, 5.11, 5.20, 5.21 and 6.09.

Ctenocephalides felis = experiment: Activity against Ctenocephalides felis; conditions: 504 h, 100 ppm in flea larvae nutrient medium, flea eggs, checked after 21 days
Method: 20 to 25 flea eggs are placed into a horizontally positioned 50 ml tissue culture flask into which 15 g of flea larvae nutrient medium comprising 100 ppm of the active ingredient to be tested have previously been introduced. The test flasks are incubated in an incubator at 26° to 27° C. and an atmospheric humidity of 60-70%. After 21 days, the flasks are checked for the presence of adult fleas, unhatched pupae and larvae.

Myzus persicae = experiment: Systemic activity against Myzus persicae; conditions: roots of pea seedlings in 400 ppm spray mixture, 20° C., evaluated after 3 and 6 days, read-out: percentage reduction in population (% activity)
Method: Pea seedlings are infected with Myzus persicae, the roots of the plants are then placed into a spray mixture comprising 400 ppm of the active ingredient, and the plants are incubated at 20° C. The test is evaluated after 3 and 6 days. The percentage reduction in population (% activity) is determined by comparing the number of dead aphids on the treated plants with those on the untreated plants.

O=C(CC=C(F)F)OCCOc1ccc(Oc2ccccc2)cc1 [Compound 1.01, 2-(4-phenoxyphenoxy)ethyl-4,4-difluorobut-3-enoate]
> 80%: activity at 400 ppm (Nilaparvata lugens) | mortality at 10 ppm (Dermanyssus gallinae) | pest or weed control at 400 ppm (Bemisia tabaci) | pest or weed control at 100 ppm (Ctenocephalides felis) | activity at 400 ppm (Myzus persicae)

O=C(CCCCCC=C(F)F)OCCOc1ccc(Oc2ccccc2)cc1 [Compound 3.01]
> 80%: activity at 400 ppm (Nilaparvata lugens) | pest or weed control at 400 ppm (Bemisia tabaci) | pest or weed control at 100 ppm (Ctenocephalides felis)
